Like-named read-outs stand apart in the source and are kept apart here.
Test system: patients with primary aldosteronism
Procedure: A double-blind, randomized, Phase 2 trial was conducted between November 2019 and June 2022 at 11 centres in Italy, Switzerland and the Netherlands (NCT04007406). […] Patients requiring fixed-dose antihypertensive therapy continued treatment throughout the study; steroid therapies, β-adrenergic and renin-angiotensin-aldosterone system blockers were not permitted. At 14-day intervals, office blood pressures were recorded and blood samples were taken for measurement of steroid and peptide hormones and electrolytes at a central laboratory.
Plasma aldosterone and plasma renin concentration were measured centrally under GCP regulations using the Liaison® chemiluminescent immunoassay kit supplied by DiaSorin S.p.A. Italy. The system used specific monoclonal antibodies to prevent cross reactions with other major potential reactants in the serum samples. The monoclonal antibodies directed against specific epitopes of the renin molecule allowed accurate and sensitive quantification. The assays were performed according to the instructions provided by the manufacturer. […] The analytical sensitivity was <0.97 ng/ml. […] The analytical sensitivity was <0.53 IU/mL.

## (R)-(+)-5-(p-cyanophenyl)-5,6,7,8-tetrahydroimidazolium[1,5-a]pyridine dihydrogen phosphate [dexfadrostat phosphate]
Baseline aldosterone 400-600 pmol/L, 4 mg QD, Day 1 (baseline)
  plasma aldosterone concentration, mean: 433 pmol/L
Baseline aldosterone 400-600 pmol/L, 4 mg QD, Day 14
  plasma aldosterone concentration, mean: 155 pmol/L
Baseline aldosterone 400-600 pmol/L, 4 mg QD, Day 28
  plasma aldosterone concentration, mean: 100 pmol/L
Baseline aldosterone 400-600 pmol/L, 4 mg QD, Day 42
  plasma aldosterone concentration, mean: 117 pmol/L
Baseline aldosterone 400-600 pmol/L, 4 mg QD, Day 56
  plasma aldosterone concentration, mean: 141 pmol/L
Baseline aldosterone 400-600 pmol/L, 4 mg QD, Day 70 (placebo withdrawal)
  plasma aldosterone concentration, mean: 425 pmol/L
Baseline aldosterone 400-600 pmol/L, 8 mg QD, Day 1 (baseline)
  plasma aldosterone concentration, mean: 404 pmol/L
Baseline aldosterone 400-600 pmol/L, 8 mg QD, Day 14
  plasma aldosterone concentration, mean: 70 pmol/L
Baseline aldosterone 400-600 pmol/L, 8 mg QD, Day 28
  plasma aldosterone concentration, mean: 70 pmol/L
Baseline aldosterone 400-600 pmol/L, 8 mg QD, Day 42
  plasma aldosterone concentration, mean: 47 pmol/L
Baseline aldosterone 400-600 pmol/L, 8 mg QD, Day 56
  plasma aldosterone concentration, mean: 58 pmol/L
Baseline aldosterone 400-600 pmol/L, 8 mg QD, Day 70 (placebo withdrawal)
  plasma aldosterone concentration, mean: 300 pmol/L
Baseline aldosterone 400-600 pmol/L, 12 mg QD, Day 1 (baseline)
  plasma aldosterone concentration, mean: 431 pmol/L
Baseline aldosterone 400-600 pmol/L, 12 mg QD, Day 14
  plasma aldosterone concentration, mean: 63 pmol/L
Baseline aldosterone 400-600 pmol/L, 12 mg QD, Day 28
  plasma aldosterone concentration, mean: 132 pmol/L
Baseline aldosterone 400-600 pmol/L, 12 mg QD, Day 42
  plasma aldosterone concentration, mean: 142 pmol/L
Baseline aldosterone 400-600 pmol/L, 12 mg QD, Day 56
  plasma aldosterone concentration, mean: 61 pmol/L
Baseline aldosterone 400-600 pmol/L, 12 mg QD, Day 70 (placebo withdrawal)
  plasma aldosterone concentration, mean: 297 pmol/L
Baseline aldosterone 600-1000 pmol/L, 4 mg QD, Day 1 (baseline)
  plasma aldosterone concentration, mean: 728 pmol/L
Baseline aldosterone 600-1000 pmol/L, 4 mg QD, Day 14
  plasma aldosterone concentration, mean: 186 pmol/L
Baseline aldosterone 600-1000 pmol/L, 4 mg QD, Day 28
  plasma aldosterone concentration, mean: 248 pmol/L
Baseline aldosterone 600-1000 pmol/L, 4 mg QD, Day 42
  plasma aldosterone concentration, mean: 114 pmol/L
Baseline aldosterone 600-1000 pmol/L, 4 mg QD, Day 56
  plasma aldosterone concentration, mean: 250 pmol/L
Baseline aldosterone 600-1000 pmol/L, 4 mg QD, Day 70 (placebo withdrawal)
  plasma aldosterone concentration, mean: 325 pmol/L
Baseline aldosterone 600-1000 pmol/L, 8 mg QD, Day 1 (baseline)
  plasma aldosterone concentration, mean: 805 pmol/L
Baseline aldosterone 600-1000 pmol/L, 8 mg QD, Day 14
  plasma aldosterone concentration, mean: 83 pmol/L
Baseline aldosterone 600-1000 pmol/L, 8 mg QD, Day 28
  plasma aldosterone concentration, mean: 120 pmol/L
Baseline aldosterone 600-1000 pmol/L, 8 mg QD, Day 42
  plasma aldosterone concentration, mean: 123 pmol/L
Baseline aldosterone 600-1000 pmol/L, 8 mg QD, Day 56
  plasma aldosterone concentration, mean: 131 pmol/L
Baseline aldosterone 600-1000 pmol/L, 8 mg QD, Day 70 (placebo withdrawal)
  plasma aldosterone concentration, mean: 423 pmol/L
Baseline aldosterone 600-1000 pmol/L, 12 mg QD, Day 1 (baseline)
  plasma aldosterone concentration, mean: 912 pmol/L
Baseline aldosterone 600-1000 pmol/L, 12 mg QD, Day 14
  plasma aldosterone concentration, mean: 123 pmol/L
Baseline aldosterone 600-1000 pmol/L, 12 mg QD, Day 28
  plasma aldosterone concentration, mean: 104 pmol/L
Baseline aldosterone 600-1000 pmol/L, 12 mg QD, Day 42
  plasma aldosterone concentration, mean: 85 pmol/L
Baseline aldosterone 600-1000 pmol/L, 12 mg QD, Day 56
  plasma aldosterone concentration, mean: 82 pmol/L
Baseline aldosterone 600-1000 pmol/L, 12 mg QD, Day 70 (placebo withdrawal)
  plasma aldosterone concentration, mean: 466 pmol/L
Baseline aldosterone 1000-2500 pmol/L, 4 mg QD, Day 1 (baseline)
  plasma aldosterone concentration, mean: 2005 pmol/L
Baseline aldosterone 1000-2500 pmol/L, 4 mg QD, Day 14
  plasma aldosterone concentration, mean: 816 pmol/L
Baseline aldosterone 1000-2500 pmol/L, 4 mg QD, Day 28
  plasma aldosterone concentration, mean: 531 pmol/L
Baseline aldosterone 1000-2500 pmol/L, 4 mg QD, Day 42
  plasma aldosterone concentration, mean: 629 pmol/L
Baseline aldosterone 1000-2500 pmol/L, 4 mg QD, Day 56
  plasma aldosterone concentration, mean: 589 pmol/L
Baseline aldosterone 1000-2500 pmol/L, 4 mg QD, Day 70 (placebo withdrawal)
  plasma aldosterone concentration, mean: 1393 pmol/L
Baseline aldosterone 1000-2500 pmol/L, 8 mg QD, Day 1 (baseline)
  plasma aldosterone concentration, mean: 1080 pmol/L
Baseline aldosterone 1000-2500 pmol/L, 8 mg QD, Day 14
  plasma aldosterone concentration, mean: 27 pmol/L
Baseline aldosterone 1000-2500 pmol/L, 8 mg QD, Day 28
  plasma aldosterone concentration, mean: 57 pmol/L
Baseline aldosterone 1000-2500 pmol/L, 8 mg QD, Day 42
  plasma aldosterone concentration, mean: 27 pmol/L
Baseline aldosterone 1000-2500 pmol/L, 8 mg QD, Day 56
  plasma aldosterone concentration, mean: 27 pmol/L
Baseline aldosterone 1000-2500 pmol/L, 8 mg QD, Day 70 (placebo withdrawal)
  plasma aldosterone concentration, mean: 395 pmol/L
Baseline aldosterone 1000-2500 pmol/L, 12 mg QD, Day 1 (baseline)
  plasma aldosterone concentration, mean: 1410 pmol/L
Baseline aldosterone 1000-2500 pmol/L, 12 mg QD, Day 14
  plasma aldosterone concentration, mean: 111 pmol/L
Baseline aldosterone 1000-2500 pmol/L, 12 mg QD, Day 28
  plasma aldosterone concentration, mean: 74 pmol/L
Baseline aldosterone 1000-2500 pmol/L, 12 mg QD, Day 42
  plasma aldosterone concentration, mean: 71 pmol/L
Baseline aldosterone 1000-2500 pmol/L, 12 mg QD, Day 56
  plasma aldosterone concentration, mean: 349 pmol/L
